# Assay results as given in patent US9637469B2, “Pyridine derivative” (Teijin Pharma Limited, priority 2012, dated 2017).
# Biological target: T1, human URAT1 (Homo sapiens, UniProt Q96S37)
# T1 construct: Full-length cDNA of human URAT1 (hURAT1)
# T1 sequence (Q96S37 1-553): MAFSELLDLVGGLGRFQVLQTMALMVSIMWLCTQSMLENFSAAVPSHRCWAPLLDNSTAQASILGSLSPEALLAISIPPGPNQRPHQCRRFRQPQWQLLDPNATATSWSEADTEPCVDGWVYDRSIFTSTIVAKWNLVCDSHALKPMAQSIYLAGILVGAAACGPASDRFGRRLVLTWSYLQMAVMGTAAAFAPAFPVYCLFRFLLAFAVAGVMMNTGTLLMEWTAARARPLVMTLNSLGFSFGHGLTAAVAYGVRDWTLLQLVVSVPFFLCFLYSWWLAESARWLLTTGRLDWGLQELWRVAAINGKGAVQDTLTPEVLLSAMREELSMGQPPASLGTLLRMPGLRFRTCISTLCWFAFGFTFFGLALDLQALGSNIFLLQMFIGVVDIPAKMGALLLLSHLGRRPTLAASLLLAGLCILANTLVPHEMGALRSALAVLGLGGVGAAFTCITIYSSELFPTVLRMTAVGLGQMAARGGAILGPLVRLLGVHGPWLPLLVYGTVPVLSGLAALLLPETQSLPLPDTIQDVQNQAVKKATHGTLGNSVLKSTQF
# Experiment: Test for inhibition of uric acid transport using human URAT1-expressing cells;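 note: three stars up to 0.2 µM two stars 0.2-2 µM one star 2-20 µM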
# Format: cell-based
# Conditions: HEK 293 cells expressing human URAT1; 14C-labeled uric acid 25 μM; uptake 37° C. for 5 min
# How it was run: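 HEK293 cells stably transfected with full-length hURAT1, preincubated 10 min at 37 °C in HBSS with NaCl replaced by Na gluconate. Uptake of 25 μM ¹⁴C-uric acid with compound ran 5 min at 37 °C, then scintillation counting. IC50 derived from % of DMSO-control URAT1-specific uptake.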
row,SMILES,Inhibitory Activity (IC50 of uric acid transport inhibition)
1,"CS(=O)(=O)NC(=O)c1ccc(-c2cccnc2)n1Cc1cccc2ccccc12 [Compound B24, N-(methylsulfonyl)-1-(naphthalen-1-ylmethyl)-2-(pyridin-3-yl)-1H-pyrrole-5-carboxamide]",* * *
2,"Cc1cccc2scc(Cn3c(C(=O)O)ccc3-c3cccnc3)c12 [Compound B7, 1-((4-methylbenzo[b]thiophen-3-yl)methyl)-2-(pyridin-3-yl)-1H-pyrrole-5-carboxylic acid]",* * *
3,"CCC(O)(CC)c1nc(-c2cccnc2)n(Cc2cc(Cl)ccc2Cl)c1C(=O)O [Compound A109, 1-(2,5-dichlorobenzyl)-4-(3-hydroxypentan-3-yl)-2-(pyridin-3-yl)-1H-imidazole-5-carboxylic acid]",* *
4,"O=C(O)c1c(CO)nc(-c2cncc(Cl)c2)n1Cc1cc(Cl)ccc1Cl [Compound A191, 2-(5-chloropyridin-3-yl)-1-(2,5-dichlorobenzyl)-4-(hydroxymethyl)-1H-imidazole-5-carboxylic acid]",* * *
5,"O=C(O)c1c(CN2CCCC2)nc(-c2cncc(Cl)c2)n1Cc1cc(Cl)ccc1Cl [Compound A194, 2-(5-chloropyridin-3-yl)-1-(2,5-dichlorobenzyl)-4-(pyrrolidin-1-ylmethyl)-1H-imidazole-5-carboxylic acid]",* * *
6,"CC(C)(O)c1nc(-c2cncc(Cl)c2)n(Cc2cc(Cl)ccc2Cl)c1C(=O)O [Compound A213, 2-(5-chloropyridin-3-yl)-1-(2,5-dichlorobenzyl)-4-(2-hydroxypropan-2-yl)-1H-imidazole-5-carboxylic acid]",* * *
7,"O=C(O)c1cnc(-c2cncc(F)c2)n1Cc1cc(Cl)ccc1Cl [Compound A171, 1-(2,5-dichlorobenzyl)-2-(5-fluoropyridin-3-yl)-1H-imidazole-5-carboxylic acid]",* * *
8,"Cc1cncc(-c2nc(C)c(C(=O)O)n2Cc2cc(C)ccc2C)c1 [Compound A180, 1-(2,5-dimethylbenzyl)-4-methyl-2-(5-methylpyridin-3-yl)-1H-imidazole-5-carboxylic acid]",* * *
9,"Cc1ccc2ccccc2c1Cn1c(C(=O)O)ccc1-c1cccnc1 [Compound B4, 1-((2-methylnaphthalen-1-yl)methyl)-2-(pyridin-3-yl)-1H-pyrrole-5-carboxylic acid]",* *
10,"CC(C)(Sc1cnc(-c2cncc(Cl)c2)n1Cc1cc(Cl)ccc1Cl)C(=O)O [Compound A262, 2-((2-(5-chloropyridin-3-yl)-1-(2,5-dichlorobenzyl)-1H-imidazol-5-yl)thio)-2-methylpropanoic acid]",* *
11,"Cc1nc(-c2cccnc2)n(Cc2ccc(Cl)cc2Cl)c1C(=O)O [Compound A77, 1-(2,4-dichlorobenzyl)-4-methyl-2-(pyridin-3-yl)-1H-imidazole-5-carboxylic acid]",* *
12,"CC(=O)c1cncc(-c2nc(C)c(C(=O)O)n2Cc2cc(Cl)ccc2Cl)c1 [Compound A183, 2-(5-acetylpyridin-3-yl)-1-(2,5-dichlorobenzyl)-4-methyl-1H-imidazole-5-carboxylic acid]",* * *
13,"CSc1cncc(-c2nc(C)c(C(=O)O)n2Cc2cc(Cl)ccc2Cl)c1 [Compound A182, 1-(2,5-dichlorobenzyl)-4-methyl-2-(5-(methylthio)pyridin-3-yl)-1H-imidazole-5-carboxylic acid]",* * *
14,"Cc1ccc(C)c(Cn2c(C(=O)O)ccc2-c2cccnc2)c1 [Compound B12, 1-(2,5-dimethylbenzyl)-2-(pyridin-3-yl)-1H-pyrrole-5-carboxylic acid]",* * *
15,"CC(C)c1nc(-c2cccnc2)n(Cc2cccc3ccsc23)c1C(=O)O [Compound A83, 1-(benzo[b]thiophen-7-ylmethyl)-4-isopropyl-2-(pyridin-3-yl)-1H-imidazole-5-carboxylic acid]",* *
16,"O=C(O)c1cnc(-c2cccnc2)n1Cc1cc(Cl)ccc1Cl [Compound A45, 1-(2,5-dichlorobenzyl)-2-(pyridin-3-yl)-1H-imidazole-5-carboxylic acid]",* * *
17,"Cc1nc(Oc2cccnc2)n(Cc2cc(Cl)ccc2Cl)c1C(=O)O [Compound A248, 1-(2,5-dichlorobenzyl)-4-methyl-2-(pyridin-3-yloxy)-1H-imidazole-5-carboxylic acid]",* * *
18,"Cc1nc(-c2cccnc2)n(Cc2sc(Cl)cc2Cl)c1C(=O)O [Compound A80, 1-((2,4-dichlorothiophen-5-yl)methyl)-4-methyl-2-(pyridin-3-yl)-1H-imidazole-5-carboxylic acid]",* *
19,"O=C(O)c1c(-c2cccc(F)c2)nc(-c2cccnc2)n1Cc1cc(Cl)ccc1Cl [Compound A92, 1-(2,5-dichlorobenzyl)-4-(3-fluorophenyl)-2-(pyridin-3-yl)-1H-imidazole-5-carboxylic acid]",* * *
20,"Cc1nc(-c2cncc(F)c2)n(Cc2cc(Cl)sc2Cl)c1C(=O)O [Compound A225, 1-((2,5-dichlorothiophen-3-yl)methyl)-2-(5-fluoropyridin-3-yl)-4-methyl-1H-imidazole-5-carboxylic acid]",* * *
21,"O=C(O)c1ccc(-c2cccnc2)n1Cc1cccc2cccnc12 [Compound B19, 2-(pyridin-3-yl)-1-(quinolin-8-ylmethyl)-1H-pyrrole-5-carboxylic acid]",* *
22,"CC(C)(Sc1ncc(-c2cncc(Cl)c2)n1Cc1cc(Cl)ccc1Cl)C(=O)O [Compound A266, 2-((5-(5-chloropyridin-3-yl)-1-(2,5-dichlorobenzyl)-1H-imidazol-2-yl)thio)-2-methylpropanoic acid]",* *
23,"CS(=O)(=O)NC(=O)c1c(C2CC2)nc(-c2cccnc2)n1Cc1cccc2ccsc12 [Compound A117, 1-(benzo[b]thiophen-7-ylmethyl)-4-cyclopropyl-N-(methylsulfonyl)-2-(pyridin-3-yl)-1H-imidazole-5-carboxamide]",* *
24,"COc1cccc(-c2nc(C)c(C(=O)O)n2Cc2cc(Cl)ccc2Cl)n1 [Compound A246, 1-(2,5-dichlorobenzyl)-2-(6-methoxypyridin-2-yl)-4-methyl-1H-imidazole-5-carboxylic acid]",* *
25,"CCc1nc(-c2cncc(F)c2)n(Cc2cccc3ccccc23)c1C(=O)O [Compound A148, 4-ethyl-2-(5-fluoropyridin-3-yl)-1-(naphthalen-1-ylmethyl)-1H-imidazole-5-carboxylic acid]",* *
26,"CCc1nc(-c2cncc(F)c2)n(Cc2cc(Cl)ccc2Cl)c1C(=O)O [Compound A150, 1-(2,5-dichlorobenzyl)-4-ethyl-2-(5-fluoropyridin-3-yl)-1H-imidazole-5-carboxylic acid]",* * *
27,"O=C(O)c1c(-c2ccc(F)cc2)nc(-c2cccnc2)n1Cc1cc(Cl)ccc1Cl [Compound A93, 1-(2,5-dichlorobenzyl)-4-(4-fluorophenyl)-2-(pyridin-3-yl)-1H-imidazole-5-carboxylic acid]",* * *

# Same assay, conditions: HEK 293 cells expressing human URAT1; 14C-labeled uric acid 25 μM; uptake 37° C. for 5 min; read-out: Inhibitory Activity (IC50 of uric acid transport inhibition)
row,SMILES,IC50
1,Cc1nc(-c2cccnc2)n(Cc2ccc(F)c(Cl)c2)c1C(=O)O [Compound A75],2 to 20 µM
2,Cc1nc(-c2cccnc2)n(Cc2cccc(F)c2)c1C(=O)O [Compound A49],2 to 20 µM
3,Cc1nc(-c2cccnc2)n(C(C)c2cc(Cl)ccc2Cl)c1C(=O)O (stereo not shown) [Compound A87],2 to 20 µM
4,Cc1nc(-c2ccnc(Cl)c2)n(Cc2cccc3ccccc23)c1C(=O)O [Compound A242],2 to 20 µM
5,"Cc1nc(-c2cccnc2)n(Cc2cc(Cl)ccc2Cl)c1C(=O)NS(C)(=O)=O [Compound A111, 1-(2,5-dichlorobenzyl)-4-methyl-N-(methylsulfonyl)-2-(pyridin-3-yl)-1H-imidazole-5-carboxamide]",2 to 20 µM
6,COc1cccc(F)c1Oc1cncc(-c2nc(C)c(C(=O)O)n2Cc2cc(Cl)ccc2Cl)c1 [Compound A184],2 to 20 µM
7,Cc1ccc2ccccc2c1Cn1c(-c2ccccn2)nc(C)c1C(=O)O [Compound A241],2 to 20 µM
